Assay results published in PMC8371902, “Phase 1 study of M2698, a p70S6K/AKT dual inhibitor, in patients with advanced cancer” (Journal of Hematology & Oncology, 2021).

Tests used:
[1] = tested on: phospho-S6 (pS6) in tumor tissue; test: pS6 in tumor biopsies by immunohistochemistry, PK/PD models; format: in vivo, human
From the text: Supplementary Table S7. Parameter estimates for pharmacokinetic/ pharmacodynamic models of pS6 in tumor tissue using dose and area under the curve (AUCT, calculated as dose divided by apparent clearance at time of tissue biopsy) as exposure metrics
log-linear regression model of dose – tumor pS6: y ~ slope *log(Dose)
Emax regression model of AUC – tumor pS6: y ~ (Emax *AUC) / (EC50 + AUC)

[2] = design: method as in PMID 27186432; conditions: preclinical studies ref 21; cited from earlier work
[3] = tested on: phospho-S6 (pS6) in peripheral blood mononuclear cells; test: pS6 in PBMCs by flow cytometry, PK/PD Emax model
Method: Pharmacodynamic biomarker analysis consisted of measuring levels of phospho-S6 (pS6) by flow cytometry in peripheral blood mononuclear cells (PBMCs) collected on cycle 1, days 1 and 15 at predose, 2, 4, and 8 h, and at predose on cycles ≥ 2, days 1, 8 and 15; and by immunohistochemistry in tumor biopsies obtained at baseline and on treatment (cycle 2, day 1; from the same tumor when possible).

[4] = tested on: patients with advanced metastatic cancer; test: Association between PK and safety (electrocardiogram ∆QTcF, fasting glucose); format: in vivo, human

## NC(=O)c1cccc2c(N[C@H](CN3CCC3)c3ccc(Cl)c(C(F)(F)F)c3)ncnc12 [M2698]
[1]; Emax model
  AUC giving 70% inhibition of pS6 in tumor tissue: 15,174 h.ng/mL
  AUC giving 80% inhibition of pS6 in tumor tissue: 32,087 h.ng/mL
[1]; log-linear regression model
  Dose giving 70% inhibition of pS6 in tumor tissue: ~ 160 mg
  Dose giving 80% inhibition of pS6 in tumor tissue: ~240 mg
[1]; paired biopsies, 28 patients
  Inhibition of pS6 levels in tumor tissue: dose- and concentration-dependent inhibition
[2]
  Blood–brain barrier crossing: capacity to cross the blood–brain barrier
[3]; NONMEM estimate
  EC50, PK/PD model of pS6 in PBMCs (plasma concentration for 50% inhibition): 1643 ng/mL
  Emax, PK/PD model of pS6 in PBMCs: 0.148
[3]; in vivo
  Inhibition of pS6 levels in PBMCs: dose- and concentration-dependent inhibition
[4]; across all cohorts
  Changes in mean electrocardiogram data: no clinically relevant changes
[4]; in vivo
  Correlation between exposure and fasting glucose levels: no correlation
